In patent US12622886B2, “Compositions comprising amino acids for prevention and/or treatment of cancer” (Professional Dietetics S.p.A., priority 2020, dated 2026):

Test system: MCF7 breast cancer cells
Test: MCF7 proliferation (acid phosphatase assay and Trypan blue exclusion)
Format: cell-based, human
Details: 1% α5 for 48 h and 1 μM DOX for 16 h
Method: MCF-7 cells were cultured in DMEM as above and treated with 1% α5 composition for 48 h and 1 μM doxorubicin (DOX; Sigma-Aldrich, Milan, Italy) for 16 h (FIG. 7).
To quantify MCF7 cell growth, acid phosphatase assay was used as described [Yang T T et al. 1996 Anal Biochem. 241(1):103-8]. Briefly, MCF7 cells were placed in 96-well plates at 5,000 to 20,000 cells per well density and treated with 1% α5 (for 48 h) and 1 μM DOX (for 16 h). Culture medium was removed and each well washed once with phosphate-buffered saline (PBS, pH 7.2), and added with 100 μl buffer containing 0.1 M sodium acetate (pH 5.0), 0.1% Triton X-100, and 5 mM p-nitrophenyl phosphate (pNPP). Then, plates were placed in a 37° C. incubator for 2 h. The reaction was stopped with the addition of 10 μl 1 N NaOH, and color development was assessed at 405 nm. Non-enzymatic pNPP hydrolysis was measured in wells without cells.

Structure (SMILES): COc1cccc2c1C(=O)c1c(O)c3c(c(O)c1C2=O)C[C@@](O)(C(=O)CO)C[C@@H]3O[C@H]1C[C@H](N)[C@H](O)[C@H](C)O1 [DOX, doxorubicin]
- anti-proliferative effect of DOX together with the α5 composition: completely unaffected
